The values that follow come from patent US8937091B2 (Japan Science and Technology Agency, priority 2009, dated 2015).

The test system of test [1] is SOCE (store operated calcium entry) in CHO cells. Kind of test: Assay of SOCE (store operated calcium entry)-inhibiting action. It counts as cell-based, Chinese hamster. The note with it: CHO cells, thapsigargin; for inhibition at 10 µM / inhibition at 30 µM / inhibition at 100 µM: Cricetulus griseus, CHO, read-out: SOCE level (percentage of inhibition). In outline:
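CHO cells in calcium-free BSS received compound, then 1 μM thapsigargin 2 min later to deplete stores; after 9 min, 2 mM calcium chloride (final) added. Percent inhibition of the rise in intracellular calcium determined at various compound concentrations.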

The test system of test [2] is IICR (IP3 induced calcium release) in CHO cells. In words: Assay of IICR (IP3 induced calcium release)-inhibiting action. The test is classed as cell-based, Chinese hamster. The note with it: CHO cells, 10 μM ATP; for inhibition at 10 µM / inhibition at 30 µM / inhibition at 100 µM: Cricetulus griseus, CHO, read-out: IICR level (percentage of inhibition). In outline:
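Inhibition (%) of the intracellular calcium increase triggered by 10 μM ATP, measured in CHO cells in BSS with calcium. Compound given 1 min after the buffer exchange and 2 min before ATP; values reported per compound concentration.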

As a reminder, the inhibition is how much of the control response was suppressed. As for `O=C(CCN(CCO)Cc1ccccc1)c1ccc(Br)s1` [Example 327, 2-(N-benzylhydroxyethyl)aminoethyl-5-bromo-2-thienylketone], the values for the inhibition at 10 µM in test [1] (test compound 10 μmol) and in test [2] (test compound 10 μmol) were 20% and 70%, respectively. For the same compound, the inhibition at 30 µM in test [1] (test compound 30 μmol) amounted to 20%; in test [2] (test compound 30 μmol), 10%. For the same compound, the inhibition at 100 µM in test [1] (test compound 100 μmol) is 30%; in test [2] (test compound 100 μmol), 40%.

In the case of `CN(CCO)CCC(=O)c1ccc(Br)s1` [Example 328, 2-(N-hydroxyethylmethyl)aminoethyl-5-bromo-2-thienylketone], the results for the inhibition at 10 µM in test [1] (test compound 10 μmol) and in test [2] (test compound 10 μmol) were 10% and 0%, respectively. In addition, the inhibition at 30 µM in test [1] (test compound 30 μmol) and in test [2] (test compound 30 μmol) was 10% throughout. The values for the inhibition at 100 µM in test [1] (test compound 100 μmol) and in test [2] (test compound 100 μmol) were 0% and 80%, respectively.

Turning to `CC(C)N(CCO)CCC(=O)c1ccc(Br)s1` [Example 329, 2-(N-hydroxyethylisopropyl)aminoethyl-5-bromo-2-thienylketone], the inhibition at 10 µM in test [1] (test compound 10 μmol) was found to be 20%; in test [2] (test compound 10 μmol) it was 0%. Besides, the inhibition at 30 µM turned out to be 20% in test [1] (test compound 30 μmol) and 10% in test [2] (test compound 30 μmol). Moreover, the inhibition at 100 µM in test [1] (test compound 100 μmol) was 10%; in test [2] (test compound 100 μmol), 50%.

For the compound `O=C(CCN(CCO)CCO)c1ccc(Br)s1` [Example 330, 2-(N-bishydroxyethyl)aminoethyl-5-bromo-2-thienylketone], the values for the inhibition at 10 µM in test [1] (test compound 10 μmol) and in test [2] (test compound 10 μmol) were 10% and 30%, respectively. In addition, the inhibition at 30 µM in test [1] (test compound 30 μmol) is 10%; in test [2] (test compound 30 μmol), 40%. Besides, the inhibition at 100 µM in test [1] (test compound 100 μmol) amounted to 20%; in test [2] (test compound 100 μmol), 50%.

With `CCN(CCO)CCC(=O)c1ccc(Br)s1` [Example 331, 2-(N-2-hydroxyethylethyl)aminoethyl-5-bromo-2-thienylketone], the inhibition at 10 µM in test [1] (test compound 10 μmol) and in test [2] (test compound 10 μmol) was 0% throughout. Further, the inhibition at 30 µM in test [1] (test compound 30 μmol) and in test [2] (test compound 30 μmol) was 10% in each case. The results for the inhibition at 100 µM in test [1] (test compound 100 μmol) and in test [2] (test compound 100 μmol) were 20% and 70%, respectively.

`CC(C)(C)N(CCO)CCC(=O)c1ccc(Br)s1` [Example 332, 2-(N-hydroxyethyl-t-butyl)aminoethyl-5-bromo-2-thienylketone]: the “SOCE level (percentage of inhibition)” value in test [1] (test compound 10 μmol) is reported as 0%; in test [1] (test compound 30 μmol), 10%; in test [1] (test compound 100 μmol), 20%. Besides, the “IICR level (percentage of inhibition)” value in test [2] (test compound 10 μmol) amounted to 0%; in test [2] (test compound 30 μmol) it was 10%; in test [2] (test compound 100 μmol), 50%.

With `O=C(CCN1CCCC1CO)c1ccc(Br)s1` (stereo not drawn) [Example 333, 2-(2-hydroxymethylpyrrolidinyl)aminoethyl-5-bromo-2-thienylketone], the inhibition at 10 µM in test [1] (test compound 10 μmol) is 20%; in test [2] (test compound 10 μmol) it was 0%. Also, the inhibition at 30 µM in test [1] (test compound 30 μmol) and in test [2] (test compound 30 μmol) was 30% in each case. Moreover, the inhibition at 100 µM was 20% in test [1] (test compound 100 μmol) and 50% in test [2] (test compound 100 μmol).

Turning to `NCCN(CCO)CCC(=O)c1ccc(Br)s1` [Example 334, 2-(N-2-hydroxyethyl-N-2-aminoethyl)aminoethyl-5-bromo-2-thienylketone], the inhibition at 10 µM in test [1] (test compound 10 μmol) was found to be 30%; in test [2] (test compound 10 μmol), 20%. For the same compound, the inhibition at 30 µM was 30% in test [1] (test compound 30 μmol) and 0% in test [2] (test compound 30 μmol). In addition, the inhibition at 100 µM in test [1] (test compound 100 μmol) was 40%; in test [2] (test compound 100 μmol) it was 60%.

As for `O=C(CCNCCS)c1ccc(Br)s1` [Example 335, 2-(N-mercaptoethyl)aminoethyl-5-bromo-2-thienylketone], the inhibition at 10 µM came to 20% in test [1] (test compound 10 μmol) and 10% in test [2] (test compound 10 μmol). For the same compound, the results for the inhibition at 30 µM in test [1] (test compound 30 μmol) and in test [2] (test compound 30 μmol) were 30% and 50%, respectively. Moreover, the values for the inhibition at 100 µM in test [1] (test compound 100 μmol) and in test [2] (test compound 100 μmol) were 50% and 70%, respectively.

Turning to `O=C(CCNc1ccccc1O)c1ccc(Br)s1` [Example 336, 2-(N-hydroxyphenyl)aminoethyl-5-bromo-2-thienylketone], the inhibition at 10 µM in test [1] (test compound 10 μmol) was found to be 10%; in test [2] (test compound 10 μmol) it was 20%. The inhibition at 30 µM in test [1] (test compound 30 μmol) was 0%; in test [2] (test compound 30 μmol), 10%. The results for the inhibition at 100 µM in test [1] (test compound 100 μmol) and in test [2] (test compound 100 μmol) were 0% and 60%, respectively.

With `CCCCN(CCC(=O)c1ccc(Br)s1)c1ccccc1` [Example 337, 2-(N-phenyl-N-n-butyl)aminoethyl-5-bromo-2-thienylketone], the inhibition at 10 µM in test [1] (test compound 10 μmol) turned out to be 20%; in test [2] (test compound 10 μmol), 50%. For the same compound, the inhibition at 30 µM is 30% in test [1] (test compound 30 μmol) and 20% in test [2] (test compound 30 μmol). Moreover, the inhibition at 100 µM in test [1] (test compound 100 μmol) worked out at 40%; in test [2] (test compound 100 μmol), 0%.

For the compound `CCCCN(CCCC)CCC(=O)c1ccc(Br)s1` [Example 338, 2-(N,N-di-n-butyl)aminoethyl-5-bromo-2-thienylketone], the values for the inhibition at 10 µM in test [1] (test compound 10 μmol) and in test [2] (test compound 10 μmol) were 0% and 50%, respectively. Also, the inhibition at 30 µM in test [1] (test compound 30 μmol) came to 0%; in test [2] (test compound 30 μmol) it was 50%. Further, the figures for the inhibition at 100 µM in test [1] (test compound 100 μmol) and in test [2] (test compound 100 μmol) were 24% and 60%, respectively.

In the case of `CCC(C)N(CCC(=O)c1ccc(Br)s1)C(C)CC` (stereo not drawn) [Example 339, 2-(N,N-di-sec-butyl)aminoethyl-5-bromo-2-thienylketone], the inhibition at 10 µM in test [1] (test compound 10 μmol) is 0%; in test [2] (test compound 10 μmol) it was 50%. In addition, the inhibition at 30 µM was determined as 8% in test [1] (test compound 30 μmol) and 80% in test [2] (test compound 30 μmol). Besides, the inhibition at 100 µM in test [1] (test compound 100 μmol) was 61%; in test [2] (test compound 100 μmol) it was 60%.

Take `O=C(CCNC(CO)c1ccccc1)c1ccc(Br)s1` (stereo not drawn) [Example 342, 2-(N-1-phenyl-2-hydroxyethyl)aminoethyl-5-bromo-2-thienylketone]: the inhibition at 10 µM in test [1] (test compound 10 μmol) and in test [2] (test compound 10 μmol) was 0% throughout. Besides, the inhibition at 30 µM in test [1] (test compound 30 μmol) came to 0%; in test [2] (test compound 30 μmol), 20%. The values for the inhibition at 100 µM in test [1] (test compound 100 μmol) and in test [2] (test compound 100 μmol) were 34% and 40%, respectively.

Turning to `NCC(O)CNCCC(=O)c1ccc(Br)s1` (stereo not drawn) [Example 343, 2-(N-2-hydroxy-3-aminopropyl)aminoethyl-5-bromo-2-thienylketone], the inhibition at 10 µM in test [1] (test compound 10 μmol) worked out at 0%; in test [2] (test compound 10 μmol) it was 50%. Further, the inhibition at 30 µM in test [1] (test compound 30 μmol) was 0%; in test [2] (test compound 30 μmol) it was 70%. For the same compound, the inhibition at 100 µM in test [1] (test compound 100 μmol) came out at 26%; in test [2] (test compound 100 μmol), 80%.

In the case of `NCCCCN(CCCN)CCC(=O)c1ccc(Br)s1` [Example 344, 2-(N-4-aminobutyl-N-3-aminopropyl)aminoethyl-5-bromo-2-thienylketone], the inhibition at 10 µM was 0% in test [1] (test compound 10 μmol) and 10% in test [2] (test compound 10 μmol). Also, the results for the inhibition at 30 µM in test [1] (test compound 30 μmol) and in test [2] (test compound 30 μmol) were 2% and 40%, respectively. The inhibition at 100 µM in test [1] (test compound 100 μmol) was 6%; in test [2] (test compound 100 μmol), 30%.

In the case of `O=C(CCN1CCCC1O)c1ccc(Br)s1` (stereo not drawn) [Example 345, 2-(N-2-hydroxypyrrolidino)aminoethyl-5-bromo-2-thienylketone], the inhibition at 10 µM in test [1] (test compound 10 μmol) and in test [2] (test compound 10 μmol) was 0% throughout. The inhibition at 30 µM in test [1] (test compound 30 μmol) turned out to be 0%; in test [2] (test compound 30 μmol), 20%. In addition, the inhibition at 100 µM in test [1] (test compound 100 μmol) was determined as 10%; in test [2] (test compound 100 μmol), 70%.

As for `O=C(CCNc1ccccc1S)c1ccc(Br)s1` [Example 347, 2-(N-2-mercaptophenyl)aminoethyl-5-bromo-2-thienylketone], the inhibition at 10 µM in test [1] (test compound 10 μmol) and in test [2] (test compound 10 μmol) was 0% throughout. Moreover, the inhibition at 30 µM in test [1] (test compound 30 μmol) worked out at 0%; in test [2] (test compound 30 μmol), 20%. For the same compound, the inhibition at 100 µM in test [1] (test compound 100 μmol) came out at 0%; in test [2] (test compound 100 μmol), 50%.

Turning to `O=C(CCN1CCCCC1)c1ccc(Br)s1` [Example 348, 2-piperidinoethyl-5-bromo-2-thienylketone], the figures for the inhibition at 10 µM in test [1] (test compound 10 μmol) and in test [2] (test compound 10 μmol) were 0% and 20%, respectively. The inhibition at 30 µM in test [1] (test compound 30 μmol) and in test [2] (test compound 30 μmol) was 0% throughout. Further, the results for the inhibition at 100 µM in test [1] (test compound 100 μmol) and in test [2] (test compound 100 μmol) were 16% and 20%, respectively.

With `O=C(CCNCC(O)c1ccccc1)c1ccc(Br)s1` (stereo not drawn) [Example 349, 2-(2-hydroxy-2-phenylethyl)aminoethyl-5-bromo-2-thienylketone], the inhibition at 10 µM came to 46% in test [1] (test compound 10 μmol) and 20% in test [2] (test compound 10 μmol). Further, the inhibition at 30 µM in test [1] (test compound 30 μmol) and in test [2] (test compound 30 μmol) was 0% each time. For the same compound, the inhibition at 100 µM in test [1] (test compound 100 μmol) stood at 0%; in test [2] (test compound 100 μmol), 50%.

Consider `O=C(CCN1CCCCC1CO)c1ccc(Br)s1` (stereo not drawn) [Example 350], for which the inhibition at 10 µM in test [1] (test compound 10 μmol) was 10%; in test [2] (test compound 10 μmol), 60%. In addition, the results for the inhibition at 30 µM in test [1] (test compound 30 μmol) and in test [2] (test compound 30 μmol) were 2% and 50%, respectively. For the same compound, the results for the inhibition at 100 µM in test [1] (test compound 100 μmol) and in test [2] (test compound 100 μmol) were 3% and 70%, respectively.
